Our source for the Activity and IC50 values is ChEMBL document CHEMBL5316335, “Tanzawaic Acid Derivatives from the Marine-Derived Penicillium steckii as Inhibitors of RANKL-Induced Osteoclastogenesis” (J Nat Prod, 2023).

The source made the active and inactive calls. The calls are words filed in the database; no cut-off is given here.

Experiment [1] has as its system BMMC. Put plainly: Anti-osteoclastogenic activity in mouse BMMC assessed as inhibition of RANKL-induced osteoclast differentiation at 5 to 15 uM and measured after 3 days by TRAP staining inverted microscopic analysis. The class given is functional, cell-based. The conditions noted are these: dose 5-15 µM, time 3.0 day.
Experiment [2] has as its system CWR22R. Put plainly: Anticancer activity against human 22Rv1 cells assessed as reduction in cell viability by MTT assay. The class given is functional, cell-based. (Tetrazolium dyes change colour on reduction, which living cells bring about.)
Experiment [3] concerns DU-145. As to the kind of experiment: Anticancer activity against human DU-145 cells assessed as reduction in cell viability by MTT assay. The class given is functional, cell-based.
Experiment [4] is described as follows: Inhibition of LPS-induced NF-kappaB activation in mouse RAW264.7 cells transfected with NF-kappaB luciferase reporter gene pretreated with compounds for 30 mins followed by LPS stimulation for 8 hrs by luciferase reporter gene assay. The class given is cell-based. A general note: A reporter such as luciferase makes a cellular process visible.
The test system of experiment [5] is Candida albicans. As to the kind of experiment: Antifungal activity against Candida albicans Berkhout assessed as inhibition of fungal growth by broth microdilution method. The class given is functional, organism-based. Background: In broth dilution the organism is exposed to a series of concentrations in liquid medium.
Experiment [6] concerns Colletotrichum gloeosporioides. Put plainly: Antifungal activity against Colletotrichum gloeosporioides assessed as inhibition of fungal growth by broth microdilution method. The class given is functional, organism-based.
In experiment [7] the test system is LNCaP. Put plainly: Anticancer activity against human LNCaP cells assessed as reduction in cell viability by MTT assay. The class given is functional, cell-based.
The test system of experiment [8] is Sclerotinia sclerotiorum. Put plainly: Antifungal activity against Sclerotinia sclerotiorum Hanzawa assessed as inhibition of fungal growth by broth microdilution method. The class given is functional, organism-based.
For experiment [9], the system named is Klebsiella pneumoniae. Put plainly: Antibacterial activity against Klebsiella pneumoniae assessed as inhibition of bacterial growth by broth microdilution method. The class given is functional, organism-based.
Experiment [10] deals with PC-3. Put plainly: Anticancer activity against human PC-3 cells assessed as reduction in cell viability by MTT assay. The class given is functional, cell-based.
The subject of experiment [11] is Staphylococcus aureus. Put plainly: Antibacterial activity against Staphylococcus aureus assessed as inhibition of bacterial growth by broth microdilution method. The class given is functional, organism-based.
Experiment [12] deals with Pyricularia grisea. Put plainly: Antifungal activity against Magnaporthe grisea assessed as inhibition of fungal growth by broth microdilution method. The class given is functional, organism-based.

In the case of `C[C@@H]1C[C@H](C)[C@H](O)c2ccc(CO)c(/C=C/C=C/C(=O)O)c21`, the Activity result in [1] is “Dose-Dependent Effect”. The outcome in experiment [2], in [3], in [5], in experiment [6], in experiment [7] and in experiment [8] was inactive. Moreover, the result in [9], in experiment [10], in experiment [11] and in experiment [12] was inactive. Further, the IC50 (in general, the point on the concentration scale where inhibition reaches its midpoint) in experiment [4] is 10.4 µM.
On to `Cc1ccc2c(c1/C=C/C=C/C(=O)O)[C@H](C)C[C@@](C)(O)C2`, for which the outcome in experiment [2], in [3], in experiment [5], in [6], in [7] and in [8] was inactive. Also, the result in experiment [9], in [10], in experiment [11] and in [12] was inactive. Also, in experiment [4], the IC50 was found to be 18.6 µM.
Consider `Cc1ccc(S(=O)(=O)/C=C/C#N)cc1`, for which, in experiment [4], the IC50 was found to be 5 µM.
Take `C[C@@H]1C[C@@H]2[C@H](O)[C@H](O)[C@H](C)[C@](O)(/C=C/C=C/C(=O)O)[C@H]2[C@H](C)C1`: the outcome in experiment [2], in experiment [3], in experiment [5], in [6], in [7] and in experiment [8] was inactive. For the same compound, the result in [9], in [10], in experiment [11] and in experiment [12] was inactive. The IC50 in [4] was 15.2 µM.
